According to BindingDB's records for patent US8962648 (Oncotherapy Science, 2015):

The compounds below were run against T1, Lymphokine-activated killer T-cell-originated protein kinase (Homo sapiens, UniProt Q96KB5) (assay: Kinase Assay). Settings: pH 7.4; 25 °C.
T1 sequence (Q96KB5 whole entry): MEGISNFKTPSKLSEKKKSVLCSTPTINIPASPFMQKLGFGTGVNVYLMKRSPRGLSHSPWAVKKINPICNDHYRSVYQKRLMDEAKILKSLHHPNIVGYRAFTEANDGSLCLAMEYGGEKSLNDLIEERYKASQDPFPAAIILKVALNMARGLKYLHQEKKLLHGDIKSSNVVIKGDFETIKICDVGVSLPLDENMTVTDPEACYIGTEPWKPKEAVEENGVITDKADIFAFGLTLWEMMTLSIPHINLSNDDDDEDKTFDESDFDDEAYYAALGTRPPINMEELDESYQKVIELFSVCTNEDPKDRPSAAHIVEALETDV
Description: PBK activity was determined in the presence or absence of compounds using fluorescein isothiocyanate-labeled (FITC-labeled) histone H3 peptide as a substrate. […] The serially diluted compounds, 0.8 ng/micro-L PBK (Carna Biosciences) and 100 nM FITC-labeled histone H3 peptide were reacted in a reaction buffer (20 mM HEPES, 0.01% Tween-20, 0.3 mM MgCl2, 2 mM dithiothreitol, 50 micro-M ATP, pH 7.4) at room temperature for 1 hour. The reaction was stopped by the addition of three fold assay volume of progressive binding solution. Following 0.5 hour incubation at room temperature.

Structure (SMILES)	IC50
CN(C)S(=O)(=O)c1ccc(-c2c(O)ccc3[nH]c(=O)c4sccc4c23)cc1 [US8962648, 304]	45 nM
CC(N)Cc1ccc(-c2c(O)cc(Cl)c3[nH]c(=O)c4sccc4c23)cc1 (stereo not given) [US8962648, 1106]	41 nM
CCN(CC)Cc1ccc(-c2c(O)ccc3[nH]c(=O)c4sccc4c23)cc1 [US8962648, 184]	7.7 nM
CN[C@@H](C)c1ccc(-c2c(OC)ccc3[nH]c(=O)c4sccc4c23)cc1 [US8962648, 1064]	2.5 nM
CC(CBr)NS(=O)(=O)c1ccc(-c2c(O)ccc3[nH]c(=O)c4sccc4c23)cc1 (stereo not given) [US8962648, 1062]	31 nM
N[C@H]1CCN(c2ccc3[nH]c(=O)c4sc(-c5ccc(O)cc5)cc4c3c2)C1 [US8962648, 51]	78 nM
CC[C@@H](N)c1ccc(-c2c(O)ccc3[nH]c(=O)c4sccc4c23)cc1 [US8962648, 1131]	1.3 nM
COc1cc(C)c2[nH]c(=O)c3sccc3c2c1-c1ccc(CCN)c(Cl)c1 [US8962648, 1263]	33 nM
CC(C)NCc1ccc(-c2c(O)ccc3[nH]c(=O)c4sccc4c23)cc1 [US8962648, 229]	4.2 nM
CCN(CC)C(C)c1ccc(-c2c(O)ccc3[nH]c(=O)c4sccc4c23)cc1 (stereo not given) [US8962648, 196]	4.5 nM
COc1cc(C)c2[nH]c(=O)c3sc(F)cc3c2c1-c1ccc([C@@H](C)CN)cc1 [US8962648, 1375]	22 nM
CCC(c1ccc(-c2c(O)ccc3[nH]c(=O)c4sccc4c23)cc1)N(CC)CC (stereo not given) [US8962648, 338]	3.7 nM
CC[C@@H](N)c1ccc(-c2c(O)cc(Cl)c3[nH]c(=O)c4sccc4c23)cc1 [US8962648, 1159]	26 nM
CC[C@H](N)c1ccc(-c2c(OC)ccc3[nH]c(=O)c4sccc4c23)cc1 [US8962648, 1121]	2.9 nM
COc1ccc2[nH]c(=O)c3sccc3c2c1-c1ccc(C(C)N2CCCC2)cc1 (stereo not given) [US8962648, 216]	21 nM
COc1cc(F)c2[nH]c(=O)c3sccc3c2c1-c1ccc(CN)cc1 [US8962648, 257]	26 nM
CC(C)(CN)c1ccc(-c2c(O)cc(Cl)c3[nH]c(=O)c4sccc4c23)cc1 [US8962648, 1260]	75 nM
COc1ccc2[nH]c(=O)c3sccc3c2c1-c1ccc(CCN)cc1 [US8962648, 169]	22 nM
CCC(C#N)c1ccc(-c2c(O)ccc3[nH]c(=O)c4sccc4c23)cc1 (stereo not given) [US8962648, 1162]	13 nM
CCC(N)c1ccc(-c2c(O)cc(Cl)c3[nH]c(=O)c4sccc4c23)cc1 (stereo not given) [US8962648, 1088]	16 nM
